Data on two molecules can be found in US20200061062A1, “INHIBITORS OF HUMAN PHOSPHATIDYLINOSITOL 3-KINASE DELTA” (ICOS Corporation, priority 2000, published 2020).

One experiment relates to basophils. Description: Basophil histamine release assay. The class given is cell-based, human. How it is done: Assessment of the effect of a compound of the invention on basophil function was tested using a conventional histamine release assay, generally in accordance with the method described in Miura et al., J Immunol, 162:4198-206 (1999). Briefly, enriched basophils were preincubated with test compounds at several concentrations from 0.1 nM to 1,000 nM, for 10 min at 37° C. Then, polyclonal goat antihuman IgE (0.1 μg/mL) or fMLP was added, and allowed to incubate for an additional 30 min. Histamine released into the supernatant was measured using an automated fluorometric technique. Two compounds were tested, shown below.

For experiment [1], the system named is human neutrophils. Description: Superoxide production from neutrophils (cytochrome C reduction). The experiment is classed as cell-based. Here is the method:
Aliquots (8 mL) of heparinized blood from healthy volunteers were layered on 3 mL cushions of 7.3% FICOLL® (Sigma, St. Louis, Mo.) and 15.4% HYPAQUE® (Sigma) and centrifuged at 900 rpm for 30 min at room temperature in a table top centrifuge (Beckman). The neutrophil-rich band just above the FICOLL®-HYPAQUE® cushion was collected and washed with Hanks' balanced salt solution (HBSS) containing 0.1% gelatin. Residual erythrocytes were removed by hypotonic lysis with 0.2% NaCl. The neutrophil preparation was washed twice with HBSS containing 0.1% gelatin and used immediately.
Superoxide generation is one of the hallmarks of neutrophil activation. A variety of activators potentiate superoxide generation by neutrophils. The effect of the PI3Kδ inhibitor D-000 on superoxide generation by three different agonists: TNF1α, IgG, and fMLP, each representing separate classes of activator, was measured. Superoxide generated by the neutrophils was measured by monitoring the change in absorbance upon reduction of cytochrome C by modification of the method described by Green et al., (pp. 14.5.1-14.5.11 in Supp. 12, Curr Protocols Immunol (Eds., Colligan et al.) (1994)), as follows. Individual wells of a 96-well plate were coated overnight at 4° C. with 50 μL of 2 mg/mL solution of human fibrinogen or IgG. The wells were washed with PBS and the following reagents were added to each well: 50 μL of HBSS or superoxide dismutase (1 mg/mL), 50 μL of HBSS or TNF1α (50 ng/mL), 50 μL cytochrome C (2.7 mg/mL), and 100 μL of purified human neutrophil suspension ([…] cells/mL). The plate was centrifuged for 2 min at 200 rpm and absorbance at 550 nm was monitored for 2 hr. To measure the relative amounts of superoxide generated, values obtained from the superoxide dismutase-containing wells were subtracted from all, and normalized to the values obtained from the wells without any inhibitor.

The test system of another experiment is osteoclasts. Description: Osteoclast function, pit depths on dentine slices. The class given is cell-based, mouse. How it is done: To analyze the effect of the PI3Kδ inhibitor D-000 on osteoclasts, mouse bone marrow cells were isolated and differentiated them to osteoclasts by treating the cells with Macrophage Colony Stimulating Factor^−1 (mCSF^−1) and Osteoprotegerin Ligand (OPGL) in serum-containing medium (αMEM with 10% heat-inactivated FBS; Sigma) for 3 days. On day four, when the osteoclasts had developed, the medium was removed and cells were harvested. The osteoclasts were plated on dentine slices at 10^5 cells/well in growth medium, i.e., αMEM containing 1% serum and 2% BSA with […] and 10 ng/mL mCSF-1. After 3 hr, the medium was changed to 1% serum and 1% BSA, with or without osteopontin (25 μg/mL) and the PI3K inhibitors (100 nM). The medium was changed every 24 hours with fresh osteopontin and the inhibitors. At 72 hr, the medium was removed, and the dentine surfaces were washed with water to remove cell debris and stained with acid hematoxylin. Excess stain was washed and the pit depths were quantitated using confocal microscopy.

A further experiment concerns MEG-01. Description: Cancer cell proliferation, [3H]-thymidine incorporation, MEG-01. The class given is cell-based. The following applies: MEG-01 line; 0.001 μM to 20 μM. How it is done: (§1) The effect of compounds of the invention on cancer cell proliferation was evaluated by testing one of the compounds against a panel of Chronic Myeloid Leukemia (CML) cell lines, including KU812, RWLeu4, K562, and MEG-01.
(§2) The inhibitory activity of the compound (D-000, dissolved in DMSO) was determined as follows. The tested compound was added in a series of concentrations (0.001 μM to 20 μM) to 96-well microtiter plates with cells (1000 to 5000 cells/well). Plates were incubated for five days at 37° C. during which the control cultures without test compound were able to undergo at least two cell-division cycles. Cell growth was measured by incorporation of [^3H]-thymidine for eighteen hours added at days three, four, and five. Cells were transferred to a filter, washed and the radioactivity counted using a Matrix 96 beta counter (Packard). The percentage of cell growth was measured as follows: […]
(Dividing cells build labelled thymidine or BrdU into new DNA.)

A further experiment relates to KU812. Description: Cancer cell proliferation, [3H]-thymidine incorporation, KU812. The experiment is classed as cell-based. The following applies: Homo sapiens, 120 h; KU812 line; five days; read-out: EC50, inhibition of cell growth. How it is done: as §1, §2
For the next experiment, the system named is RWLeu4. Put plainly: Cancer cell proliferation, [3H]-thymidine incorporation, RWLeu4. The class given is cell-based. The following applies: Homo sapiens, 120 h; RWLeu4 line; five days; read-out: EC50, inhibition of cell growth. Here is the method: as §1, §2
For experiment [2], the system named is human neutrophils. Description: Bactericidal capacity of neutrophils (Staphylococcus aureus killing). The class given is cell-based. The following applies: FIG. 6; versus DMSO control. The text has this: Given that the PI3Kδ inhibitor D-000 affects certain neutrophil functions detailed above, it was of interest to see whether the compound affects neutrophil-mediated bacterial killing. The effect of D-000 on neutrophil-mediated Staphylococcus aureus killing was studied according to the method described by Clark and Nauseef (pp. 7.23.4-7.23.6 in Vol. 2, Supp. 6, Curr Protocols Immunol (Eds., Colligan et al.) (1994)). Purified human neutrophils (5×10^6 cells/mL) (treated with either DMSO or a serial dilution of D-000 in DMSO) were mixed with autologous serum. Overnight-grown S. aureus cells were washed, resuspended in HBSS, and added to the serum-opsonized neutrophils at a 10:1 ratio. Neutrophils were allowed to internalize the bacteria by phagocytosis by incubation at 37° C. for 20 min. The noninternalized bacteria were killed by 10 units/mL lysostaphin at 37° C. for 5 min and the total mixture was rotated at 37° C. Samples were withdrawn at various times for up to 90 min and the neutrophils were lysed by dilution in water. Viable bacteria were counted by plating appropriate dilutions on trypticase-soy-agar plate and counting the S. aureus colonies after overnight growth.

The next experiment has as its system K562. Put plainly: Cancer cell proliferation, [3H]-thymidine incorporation, K562. The experiment is classed as cell-based. The following applies: K562 line; 0.001 μM to 20 μM. Here is the method: as §1, §2

For the molecule `O=c1c2ccccc2nc(CSc2ncnc3[nH]ncc23)n1-c1ccccc1Cl` [Compound D-999, 3-(2-Chlorophenyl)-2-(1H-pyrazolo[3,4-d]pyrimidin-4-ylsulfanylmethyl)-3H-quinazolin-4-one, reference compound], the “Efficacy in the inhibition of histamine release compared with D-026” value in the experiment with basophils (anti-IgE) is “less efficacious”. Moreover, in the experiment with basophils (fMLP stimulus), the “Effect on histamine release, basophils stimulated with fMLP” value is given as “Neither compound elicited any effect”.

A word on the EC50: it is the concentration giving half of the maximal effect. As for `O=c1c2ccccc2nc(CSc2ncnc3[nH]cnc23)n1-c1ccccc1Cl` [Compound D-000, 3-(2-chlorophenyl)-2-(9H-purin-6-ylsulfanylmethyl)-3H-quinazolin-4-one], in the experiment with human neutrophils [1] (Homo sapiens, Neutrophil, TNF stimulus, FIG. 2, read-out: Concentration reducing TNF-induced superoxide generation to its half-maximal value), the IC50 is around 3000 nM. Moreover, in the experiment on human neutrophils [1] (IgG stimulus, at 10 μM, FIG. 2), the “Effect on superoxide generation induced by IgG” value is listed as “did not have any effect”. Besides, the “Effect on fMLP-induced superoxide generation” value in the experiment with human neutrophils [1] (fMLP stimulus, FIG. 3) is listed as “inhibited”. Further, the “Effect on osteoclast activity” value in the experiment on osteoclasts (100 nM) is listed as “almost completely inhibited”. Further, the “Pit depths (osteoclast activity), Table 1” value in the experiment with osteoclasts (inhibitor 100 nM + osteopontin (OPN) 25 μg/mL, 72 hr, two experiments, OPN alone 10 ± 0.5 and 9 ± 0.4) was found to be 1. The “Effect on cell growth” value in the experiment with MEG-01 and in the experiment with K562 was “not found to exhibit an effect” in each case. The EC50 in the experiment on KU812 and with RWLeu4 was around 2000 nM in each case. For the same molecule, in the experiment with human neutrophils [2], the “Effect on neutrophil-mediated killing of S. aureus” value is “does not significantly affect”.
